# Results: patent US20220259556A1, “METHOD FOR OBTAINING IMMUNO-SUPPRESSIVE DENDRITIC CELLS” (Transimmune AG, priority 2013, published 2022)
# “Also recorded” adds a separate entry of the source. Ends that are not written are not given here.
# What was measured:
# [1] = system: platelets; assay: Platelet adhesion studies in Vena8 flow chamber; assay type: cell-based, human
# Procedure: For experiments not involving the collection and phenotyping of cells post-flow, Vena8 biochips (Cellix Ltd, Dublin, Ireland) were used to generate laminar flow. The volumetric flow path for a channel of the Vena8 biochips measured 20000×400×100 microns (length×width×height). Protein coating of these chips is described in the appropriate section below.
# Platelet adhesion experiments were performed using the Vena8 flow chamber described above. Fibrinogen and fibronectin (Sigma) were dissolved in PBS to a final concentration of 200 mcg/ml. Channels of the Vena8 chips were incubated at room temperature in a humidified chamber for 2 hours with the protein solution, autologous plasma, or PBS alone. The channels were washed with 5× the volume RPMI. Platelet-rich-plasma was then perfused through the protein-coated channel at the indicated shear-stress, held constant. For each channel, still images were acquired exactly 90 seconds into the experiment at 4 pre-defined low power fields located along the flow path (fields were centered at 2500, 7500, 12500, and 17500 microns from the start point of infusion).
# Some experiments involved pre-treating platelet-rich-plasma with protein fragments prior to infusion through the channels. Small RGD peptides, containing the amino-acid sequence Arg-Gly-Asp-Ser; DRG peptides, contain the amino-acid sequence Ser-Asp-Gly-Arg; or fragment 400-411 of fibrinogen, containing the amino-acid sequence His-His-Leu-Gly-Gly-Ala-Lys-Gln-Ala-Gly-Asp-Val, were incubated at a concentration of 2 mM with PRP for 20 minutes at room temperature. The PRP was then perfused through the channels as previously described.
# [2] = system: monocytes; assay: Static co-cultures of platelets with monocytes; assay type: cell-based, human; details: static conditions, 18 hours
# Procedure: Experiments involving co-cultures of monocytes with additional platelets were performed as described in the Overnight Culture section, with a few necessary modifications. Following Ficoll-Hypaque separation, mononuclear cells were resuspended in 30% AB serum/RMPI to a final concentration of 10×10^6 cells/ml, of which 1 ml was allocated to each well of a 16-well plate. An additional 1 ml of platelets (suspended in RPMI, at 2× the desired final concentration) or RPMI without platelets was then added to each well. To activate platelets, 500 μl containing 2 units of thrombin was added to half the wells, and 500 μl of RPMI was added to the others to balance the volume. Cells were then incubated as described previously.
# [3] = system: lymphocytes; assay: Apoptosis of lymphocytes (Annexin-V/7-AAD); assay type: cell-based, human; details: 1 J/cm^2 and 100 ng/mL
# Procedure: (§1) Lymphocytes were treated with 8-MOP (100 ng/mL) and UVA (1 J/cm^2), washed with PBS, and co-cultured in complete media at 37° C. and 5% CO2 with either PUVA-treated or untreated-MoDC in a ratio of 5 or 10 lymphocytes to 1 MoDC. MoDC treated for 24 hr with 100 nM dexamethasone (Sigma) served as the positive control group. After 24 hr, cells were harvested and MoDC were re-purified. […] CD11c^+ MoDC were re-plated at 0.5-1.0×10^6 cells/mL in complete media and stimulated with 100 ng/mL LPS (Sigma). 24 hr after LPS stimulation, cells were harvested for RNA isolation and immunophenotyping, and supernatants were collected for cytokine quantification.
# Monoclonal antibodies included HLA-DR, CD80, CD83, CD3, CD86, CD14, CD11c and GILZ. Antibodies were obtained from Beckman-Coulter and eBioscience and were used at their pre-determined optimal dilutions. Apoptosis was assessed using the Annexin-V Apoptosis Detection Kit (eBioscience), with Annexin-V recognizing phosphatidylserine (PS) on the surface of apoptotic cells. 7-AAD substituted for PI as the cell viability dye. […] Background staining was established with appropriate isotype and fluorescence minus one controls. Immunofluorescence was analyzed using a FACSCalibur L (BD Biosciences) within 2 hr of fixation with 2% paraformaldehyde. […]
# [4] = system: GILZ; assay: GILZ expression in plate-passed PBMC treated with 8-MOP and UVA; assay type: cell-based; details: monocytes physically activated by passage through device, then 8-MOP and UVA
# Procedure: Monocytes were passed through a device derived from the Therakos system. The dimensions of the flow chamber were 30 mm width, 1600 mm length, and 1 mm height. In brief, a blood sample was spun at low speed through a Ficoll gradient to obtain e.g. 80 ml of sample with a concentration of peripheral blood mononuclear cells (PBMC) of e.g. 1.5*10^6 cells/ml. The chamber was pre-coated with platelets. The sample was passed through the chamber for 60 min at a flow rate of about 24 ml/min corresponding to a shear stress of about 0.13 Pa. The collected activated monocytes were spun at low speed and resuspended in a small volume of medium comprising 8-MOP and irradiated with […], incubated for a day and used for further analysis (Day 1PBMC+PP). As a control PBMCs were not passed through the device and incubated for a day (Day 1 PBMC). Further, PBMC were analyzed directly after harvest through a Ficoll gradient (Day0 PBMC). Day 1 PBMC+PP were then further treated with 8-MOP and UVA (PUVA). The cells and controls were then analyzed for expression of GILZ.
# [5] = system: MoDC; assay: Immunophenotyping of MoDC (HLA-DR, CD80, CD83, CD86, intracellular GILZ); assay type: cell-based, human; details: product of 8-MOP and UVA exceeded 100; 24 hr after PUVA
# Procedure: as §1
# Monoclonal antibodies included HLA-DR, CD80, CD83, CD3, CD86, CD14, CD11c and GILZ. Antibodies were obtained from Beckman-Coulter and eBioscience and were used at their pre-determined optimal dilutions. Apoptosis was assessed using the Annexin-V Apoptosis Detection Kit (eBioscience), with Annexin-V recognizing phosphatidylserine (PS) on the surface of apoptotic cells. 7-AAD substituted for PI as the cell viability dye. Cells displaying an Annexin-V^+/7-AAD^− phenotype were classified as early apoptotic cells, and cells displaying an Annexin-V^+/7-AAD^+ phenotype were classified as late apoptotic cells. Dual membrane and intracytoplasmic staining was performed using the IntraPrep fix and permeabilization kit (Beckman-Coulter). Background staining was established with appropriate isotype and fluorescence minus one controls. Immunofluorescence was analyzed using a FACSCalibur L (BD Biosciences) within 2 hr of fixation with 2% paraformaldehyde. A minimum of 10,000 events were collected for each group.
compound,measurement,setting,value
"Arg-Gly-Asp-Ser (RGDS; printed: Arg-Gly-Asp-Ser) [RGD peptides, Small RGD peptides]",Platelet adhesion to fibronectin-coated plates,"[1]; platelets (PRP) pre-incubated with 2 mM peptide for 20 minutes, flow",decreased
HHLGGAKQAGDV [fragment 400-411 of fibrinogen],Platelet adhesion to fibrinogen-coated plates,"[1]; platelets (PRP) pre-incubated with 2 mM peptide for 20 minutes, flow, listed as gamma fragments",decreased
fibrinogen,Platelet adhesion to plates pre-coated with the protein,"[1]; unactivated platelets in flow, wall shear stress 0.2 to 6.0 dyne/cm^2",highest concentrations of platelets adhered
thrombin,Monocyte differentiation versus cultures with platelets not activated by thrombin,[2],did not cause a discernible difference
"COc1c2occc2cc2ccc(=O)oc12 [8-MOP, 8-methoxypsoralen]",Time to Annexin-V display by lymphocytes,[3],2 h
same,GILZ expression / differentiation of activated monocytes,[4],can be channeled into immuno-suppressive dendritic cells; also recorded: increase of expression of GILZ
same,Reduction of CD80 cell surface expression,[5],30%
same,Reduction of CD83 cell surface expression,[5],31%
same,Reduction of CD86 cell surface expression,[5],54%
